pIC50: −log10 of the molar value. ≈ marks a conversion by molar mass, not a printed value.
What was measured:
[1] = target: T1, proteasome subunit β5 (beta5) (Homo sapiens, UniProt P28074); assay: Proteasome active-site ELISA (ProCISE), beta5, MOLT-4 lysate; format: biochemical; conditions: MOLT4 lysate, human, 1 h continuous treatment, 25° C.
T1 construct: Lysate from the human acute lymphoblastic leukemia cell line, MOLT-4; endogenous in cells; host or cells: MOLT-4
Summary of the method: (§1)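 MOLT-4 cell lysate treated 1 h at 25 °C with compound; probe-bound subunits denatured, pulled down on streptavidin beads and detected with subunit-specific antibodies plus HRP chemiluminescence.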

[2] = target: T2, immunoproteasome subunit LMP7 (Homo sapiens, UniProt P28062); assay: Proteasome active-site ELISA (ProCISE), LMP7, MOLT-4 lysate; format: biochemical; conditions: MOLT4 lysate, 1 h continuous treatment, 25° C.
T2 construct: Lysate from the human acute lymphoblastic leukemia cell line, MOLT-4; endogenous in cells; host or cells: MOLT-4
Summary of the method: as §1

[3] = target: human 20S immunoproteasome (i20S) (Homo sapiens, UniProt P28062); assay: 20S proteasome assay, chymotrypsin-like activity (succinyl-Leu-Leu-Val-Tyr-AMC), i20S; format: biochemical; conditions: LLVY substrate, 1 h continuous
From the text: (§2) Assay buffer consisted of TE buffer [20 mmol/L Tris (pH 8.0), 0.5 mmol/L EDTA] with (20S) or without (cell lysate) 0.03% SDS. Reactions were initiated by enzyme or lysate addition and monitored for AMC product formation at 27jC with a plate-based spectofluorometer (Tecan).

[4] = target: human constitutive 20S proteasome (c20S) (Homo sapiens, UniProt P28074); assay: 20S proteasome assay, chymotrypsin-like activity (succinyl-Leu-Leu-Val-Tyr-AMC), c20S; format: biochemical; conditions: LLVY substrate, 1 h continuous
From the text: as §2

Solubility pH 7 = conditions: pH 7, aqueous buffer

pIC50 [1] | pIC50 [2] | pIC50 [3] | pIC50 [4] | solubility (Solubility pH 7) | SMILES
6.70 | 7.42 | 7.20 | 6.44 | 152 µg/mL (≈ 250 µM) | COc1ccc(C[C@H](NC(=O)[C@H](C)NC(=O)CN2CCC(F)(F)CC2)C(=O)N[C@@H](CC2CCCC2)C(=O)[C@@]2(C)CO2)cc1 [Compound C-1046, (S)-N-((S)-3-cyclopentyl-1-((R)-2-methyloxiran-2-yl)-1-oxopropan-2-yl)-2-((S)-2-(2-(4,4-difluoropiperidin-1-yl)acetamido)propanamido)-3-(4-methoxyphenyl)propanamide]
6.39 | 7.29 | 6.84 | 6.09 | 2110 µg/mL (≈ 3560 µM) | C[C@H](NC(=O)CN1CCOCC1)C(=O)N[C@@H](Cc1ccc(N(C)C)cc1)C(=O)N[C@@H](Cc1ccccc1)C(=O)[C@@]1(C)CO1 [Compound C-1161, (S)-3-(4-(dimethylamino)phenyl)-N-((S)-1-((R)-2-methyloxiran-2-yl)-1-oxo-3-phenylpropan-2-yl)-2-((S)-2-(2-morpholinoacetamido)propanamido)propanamide]
6.03 | 7.08 | 7.34 | 6.45 | 2730 µg/mL (≈ 4790 µM) | COc1ccc(C[C@H](NC(=O)[C@H](C)NC(=O)CN2CCOCC2)C(=O)N[C@@H](CC2=CCCC2)C(=O)[C@@]2(C)CO2)cc1 [Compound C-1009, (S)-N-((S)-3-(Cyclopent-1-en-1-yl)-1-((R)-2-methyloxiran-2-yl)-1-oxopropan-2-yl)-3-(4-methoxyphenyl)-2-((S)-2-(2-morpholinoacetamido)propanamido)propanamide]
5.72 | 6.95 | 6.84 | 5.45 | 19.3 µg/mL (≈ 35.6 µM) | COc1ccc(C[C@H](NC(=O)[C@@H](C)NC(=O)C2CCCC2)C(=O)N[C@@H](CC2CCCC2)C(=O)[C@@]2(C)CO2)cc1 [Compound C-1021, N-((R)-1-(((S)-1-(((S)-3-cyclopentyl-1-((R)-2-methyloxiran-2-yl)-1-oxopropan-2-yl)amino)-3-(4-methoxyphenyl)-1-oxopropan-2-yl)amino)-1-oxopropan-2-yl)cyclopentanecarboxamide]
 |  | 5.51 | 3.92 | 3210 µg/mL (≈ 5280 µM) | COc1ccc(C[C@H](NC(=O)[C@H](C)NC(=O)CN2CCOCC2)C(=O)N[C@@H](C[C@@H]2CCC(F)(F)C2)C(=O)[C@@]2(C)CO2)cc1 [Compound C-1033, (S)-N-((S)-3-((S)-3,3-difluorocyclopentyl)-1-((R)-2-methyloxiran-2-yl)-1-oxopropan-2-yl)-3-(4-methoxyphenyl)-2-((S)-2-(2-morpholinoacetamido)propanamido)propanamide]
 |  | 6.51 | 6.33 | 50.2 µg/mL (≈ 83 µM) | COc1ccc(C[C@H](NC(=O)[C@H](C)NC(=O)CN2CCC(Cl)CC2)C(=O)N[C@@H](CC2CCCC2)C(=O)[C@@]2(C)CO2)cc1 [Compound C-1045, (S)-2-((S)-2-(2-(4-chloropiperidin-1-yl)acetamido)propanamido)-N-((S)-3-cyclopentyl-1-((R)-2-methyloxiran-2-yl)-1-oxopropan-2-yl)-3-(4-methoxyphenyl)propanamide]
 |  | 6.49 | 5.73 | 3870 µg/mL (≈ 6570 µM) | COc1ccc([C@H](O)[C@H](NC(=O)[C@H](C)NC(=O)CN2CCOCC2)C(=O)N[C@@H](CC2CCCC2)C(=O)[C@@]2(C)CO2)cc1 [Compound C-1023, (2S,3S)-N-((S)-3-cyclopentyl-1-((R)-2-methyloxiran-2-yl)-1-oxopropan-2-yl)-3-hydroxy-3-(4-methoxyphenyl)-2-((S)-2-(2-morpholinoacetamido)propanamido)propanamide]
 |  | 5.78 | 4.42 | 6010 µg/mL (≈ 10500 µM) | COc1ccc(C[C@H](NC(=O)[C@@H](C)NC(=O)[C@H]2CCC(=O)NC2)C(=O)N[C@@H](CC2CCCC2)C(=O)[C@@]2(C)CO2)cc1 [Compound C-1059, (S)-N-((R)-1-(((S)-1-(((S)-3-cyclopentyl-1-((R)-2-methyloxiran-2-yl)-1-oxopropan-2-yl)amino)-3-(4-methoxyphenyl)-1-oxopropan-2-yl)amino)-1-oxopropan-2-yl)-6-oxopiperidine-3-carboxamide]
 |  | 5.53 | < 3.60 | 462 µg/mL (≈ 850 µM) | COc1ccc(C[C@H](NC(=O)[C@@H](C)NC(=O)[C@@H]2CCCO2)C(=O)N[C@@H](CC2CCCC2)C(=O)[C@@]2(C)CO2)cc1 [Compound C-1031, (S)-N-((R)-1-(((S)-1-(((S)-3-cyclopentyl-1-((R)-2-methyloxiran-2-yl)-1-oxopropan-2-yl)amino)-3-(4-methoxyphenyl)-1-oxopropan-2-yl)amino)-1-oxopropan-2-yl)tetrahydrofuran-2-carboxamide]
 |  | 6.54 | 6.09 | 1020 µg/mL (≈ 1750 µM) | C[C@H](NC(=O)CN1CCOCC1)C(=O)N[C@@H](Cc1c[nH]c2ccccc12)C(=O)N[C@@H](CC1CCCC1)C(=O)[C@@]1(C)CO1 [Compound C-1014, (S)-N-((S)-3-cyclopentyl-1-((R)-2-methyloxiran-2-yl)-1-oxopropan-2-yl)-3-(1H-indol-3-yl)-2-((S)-2-(2-morpholinoacetamido)propanamido)propanamide]
 |  | 6.36 | 6.15 | 24.1 µg/mL (≈ 37.7 µM) | COc1ccc(C[C@H](NC(=O)[C@H](C)NC(=O)CN2CCC(C(F)(F)F)CC2)C(=O)N[C@@H](CC2CCCC2)C(=O)[C@@]2(C)CO2)cc1 [Compound C-1047, (S)-N-((S)-3-cyclopentyl-1-((R)-2-methyloxiran-2-yl)-1-oxopropan-2-yl)-3-(4-methoxyphenyl)-2-((S)-2-(2-(4-(trifluoromethyl)piperidin-1-yl)acetamido)propanamido)propanamide]
 |  | 6.95 | 6.52 | 1910 µg/mL (≈ 3350 µM) | C[C@H](NC(=O)CN1CCOCC1)C(=O)N[C@@H](Cc1ccc(F)cn1)C(=O)N[C@@H](Cc1ccccc1)C(=O)[C@@]1(C)CO1 [Compound C-1154, (S)-3-(5-fluoropyridin-2-yl)-N-((S)-1-((R)-2-methyloxiran-2-yl)-1-oxo-3-phenylpropan-2-yl)-2-((S)-2-(2-morpholinoacetamido)propanamido)propanamide]
 |  | 5.59 | 5.04 | 1900 µg/mL (≈ 3250 µM) | COc1ccc(C[C@H](NC(=O)[C@H](C)NC(=O)CN2CCOCC2)C(=O)N[C@@H](CC2=C(C)CCC2)C(=O)[C@@]2(C)CO2)cc1 [Compound C-1044, (S)-3-(4-methoxyphenyl)-N-((S)-3-(2-methylcyclopent-1-en-1-yl)-1-((R)-2-methyloxiran-2-yl)-1-oxopropan-2-yl)-2-((S)-2-(2-morpholinoacetamido)propanamido)propanamide]
 |  | 6.69 | 6.16 | 7010 µg/mL (≈ 12200 µM) | C[C@H](NC(=O)CN1CCOCC1)C(=O)N[C@@H](Cc1ccc(O)c(O)c1)C(=O)N[C@@H](CC1CCCC1)C(=O)[C@@]1(C)CO1 [Compound C-1039, (S)-N-((S)-3-cyclopentyl-1-((R)-2-methyloxiran-2-yl)-1-oxopropan-2-yl)-3-(3,4-dihydroxyphenyl)-2-((S)-2-(2-morpholinoacetamido)propanamido)propanamide]
 |  | 6.26 | 5.58 | 153 µg/mL (≈ 258 µM) | COc1ccc(C[C@H](NC(=O)[C@H](C)NC(=O)CN2CCC(F)(F)C2)C(=O)N[C@@H](CC2CCCC2)C(=O)[C@@]2(C)CO2)cc1 [Compound C-1048, (S)-N-((S)-3-cyclopentyl-1-((R)-2-methyloxiran-2-yl)-1-oxopropan-2-yl)-2-((S)-2-(2-(3,3-difluoropyrrolidin-1-yl)acetamido)propanamido)-3-(4-methoxyphenyl)propanamide]
 |  | 5.60 | 5.47 | 1430 µg/mL (≈ 2420 µM) | COc1ccc(C[C@H](NC(=O)[C@H](C)NC(=O)CN2CCOCC2)C(=O)N[C@@H](CC2CCCC2)C(=O)[C@@]2(C)CO2)c(F)c1 [Compound C-1008, (S)-N-((S)-3-cyclopentyl-1-((R)-2-methyloxiran-2-yl)-1-oxopropan-2-yl)-3-(2-fluoro-4-methoxyphenyl)-2-((S)-2-(2-morpholinoacetamido)propanamido)propanamide]
 |  | 5.79 | 4.26 | 3010 µg/mL (≈ 5270 µM) | COc1ccc(C[C@H](NC(=O)[C@@H](C)NC(=O)[C@@H]2CCC(=O)NC2)C(=O)N[C@@H](CC2CCCC2)C(=O)[C@@]2(C)CO2)cc1 [Compound C-1058, (R)-N-((R)-1-(((S)-1-(((S)-3-cyclopentyl-1-((R)-2-methyloxiran-2-yl)-1-oxopropan-2-yl)amino)-3-(4-methoxyphenyl)-1-oxopropan-2-yl)amino)-1-oxopropan-2-yl)-6-oxopiperidine-3-carboxamide]
 |  | 6.45 | 5.23 | 1330 µg/mL (≈ 2440 µM) | COc1ccc(C[C@H](NC(=O)[C@@H](C)NC(=O)[C@H]2CCOC2)C(=O)N[C@@H](CC2CCCC2)C(=O)[C@@]2(C)CO2)cc1 [Compound C-1037, (S)-N-((R)-1-(((S)-1-(((S)-3-cyclopentyl-1-((R)-2-methyloxiran-2-yl)-1-oxopropan-2-yl)amino)-3-(4-methoxyphenyl)-1-oxopropan-2-yl)amino)-1-oxopropan-2-yl)tetrahydrofuran-3-carboxamide]

From USRE47302E1 (ONYX THERAPEUTICS INC., priority 2013, dated 2019)
